Source: PMC8765437, “GSK3640254 Is a Novel HIV-1 Maturation Inhibitor with an Optimized Virology Profile” (Antimicrobial Agents and Chemotherapy, 2022)

Assays:
HIV-1 = test system: HIV-1; parameters: method as in PMID 30352054; details: in combination with emtricitabine and tenofovir disoproxil fumarate; cited from earlier work
[1] = Human serum protein binding, ultracentrifugation assay; assay type: in vitro ADME
[2] = Estimation of minimum plasma concentration required for clinical efficacy; parameters: species or system human; details: multiples higher than PBA EC90 of the vast majority of HIV-1 isolates
Excerpt: These viruses were chosen to be representative of the population of Gag genes as a whole, including known polymorphism-containing viruses with reduced susceptibility to GSK’795, as well as SDM viruses with multiple changes that had previously been identified as relevant for susceptibility to earlier MIs ([7], [11]).

[3] = test system: T1, p25 cleavage in HIV-1 Gag VLPs; test: Gag p25 cleavage assay (delipidated VLPs, HIV-1 protease, LC-MS); assay type: biochemical; details: A364V VLP; 3 μM compound
T1 construct: made in house
Description: (§1) Virus-like particles of 3 genotypes were constructed and tested. In addition to WT VLP, a VLP with V370 deleted (ΔV370; a genotype characteristic of subtype C viruses) and one with the known resistance substitution A364V were analyzed. […] A364V is a substitution adjacent to the p25/p24 cleavage site (L363/A364), and in this assay (Fig. 3C), neither MI inhibited production of p24 in the presence of HIV-1 protease.
(§2) As previously described ([22]), VLPs (∼100 ng) were diluted (1:10) in 10 μL of VLP buffer (50 mM MES [pH 6.0], 100 mM NaCl, 2 mM EDTA, and 2 mM dithiothreitol) supplemented with 0.06% Triton X-100 and incubated at room temperature for 10 to 30 min to remove lipid bilayers. […] Samples (1 μL) were taken at 0-, 0.5-, 2-, and 4-h time points and underwent trypsin digestion. […] Peptide samples were then analyzed by liquid chromatography with mass spectrometry using a nanoAcquity ultraperformance liquid chromatography system (Waters Corporation, Milford, MA) interfaced with an LTQ XL Orbitrap mass spectrometer (Thermo Fisher Scientific, Waltham, MA). […]
(§3) Signals for SP1 peptides were normalized to an internal protease fragment at the C-terminal end of Gag, and data were analyzed using Thermo Xcalibur processing software 3.0.63 and Thermo Xcalibur Quanbrowser software 3.0.63 (Thermo Fisher Scientific) as described previously ([23]).

[4] = test system: p25 cleavage in HIV-1 Gag VLPs; test: as above; assay type: biochemical; details: WT and ΔV370 VLPs; 3 μM compound
Description: as §1, §2, §3

[5] = Cytotoxicity in MT-2 cells (MTS, 4-day incubation); assay type: cell-based; details: human, read-out: half-maximal cytotoxic concentration (CC50)
Description: The assay was performed in a phenol red-free medium at an initial cell density of 10,000 per well in a 96-well plate format. Cell viability was determined using a redox dye assay [3-(4,5-dimethylthiazol-2-yl)-5-(3-carboxymethoxyphenyl)-2-(4-sulfophenyl)-2H-tetrazolium, inner salt (MTS); Promega, Madison, WI] according to the manufacturer’s protocol. Half-maximal cytotoxic concentration values were calculated by fitting to a 4-parameter logistic formula y = A + {[B − A]/1 + [(C/x)^d]}, where A and B are minimal and maximal percent inhibition, respectively, C is the EC50, d is the Hill slope, and x represents compound concentrations.

[6] = in vivo, cited from earlier work

In the case of `C=C(C)[C@@H]1CC[C@]2(NCCN3CCS(=O)(=O)CC3)CC[C@]3(C)[C@H](CC[C@@H]4[C@@]5(C)CC=C(c6ccc(C(=O)O)cc6)C(C)(C)[C@@H]5CC[C@]43C)[C@@H]12` [GSK’795, reference compound], the gastrointestinal adverse events (HIV-1) is listed as “a number of gastrointestinal adverse events”.
For `C=C(C)[C@@H]1CC[C@]2(NCCN3CCS(=O)(=O)CC3)CC[C@]3(C)[C@H](CC[C@@H]4[C@@]5(C)CC=C(C6=CC[C@@](CF)(C(=O)O)CC6)C(C)(C)[C@@H]5CC[C@]43C)[C@@H]12` [GSK’254], the fraction unbound [1] was 0.14, the “estimated Cmin (target human steady-state serum concentration)” value [2] was 150 nM and the “inhibition of p25 cleavage” value [3] was “failed to impact cleavage”. For the same compound, the “inhibition of p25 cleavage” value [4] was “significantly better inhibition of p25 cleavage than GSK’795”, the CC50 at 4 days [5] was 13 ± 6 µM and the safety and tolerability ([6]; po) was “acceptable safety and tolerability”. For the same compound, the gastrointestinal intolerability [6] was “only mild gastrointestinal intolerability”.
